Molecules are shown by their SMILES.

We go through two compounds from US8980571B2, “Method of identifying a candidate compound which may inhibit α9-nAchR overexpression or estrogen receptor-dependent transcription in nicotine-derived-compound-induced breast cancer cells” (Taipei Medical University, priority 2011, dated 2015).

One data set concerns ERK1/2. As to the kind of experiment: kinase competition assay, p-ERK1/2 immunoblotting in MCF-7 cells. The data set is classed as cell-based, human. Particulars: 25 μM pretreatment 30 min, then E2 10 nM 30 min. The method, then:
After treatment, the cells were harvested for immunoblotting analysis. The p-ERα, total ER-α, and MAPK kinase proteins levels were detected by immunoblotting analysis.
For the kinase competition assays, the cells were treated with either 10 μM Ly294002, 25 μM PD98059, or 25 μM SP600125 (all from Tocris Cookson Inc., Ellisville, USA) before the treatment with nicotine or E2. All of the cell lines were grown in phenol red-free DMEM for 7 days before the experiments (Lewis, J. S., Thomas, T. J., Pestell, R. G., Albanese, C., Gallo, M. A., and Thomas, T. 2005. Differential effects of 16alpha-hydroxyestrone and 2-methoxyestradiol on cyclin D1 involving the transcription factor ATF-2 in MCF-7 breast cancer cells. J Mol Endocrinol 34:91-105). The DMEM medium used for these experiments contained 10% FBS that had been pretreated with dextran-coated charcoal (0.5% Norit A and 0.05% Dextran T-70) to avoid the effects of serum-derived estrogenic compounds.
Cell extracts were prepared as previously in Ho, Y. S., Lai, C. S., Liu, H. I., Ho, S. Y., Tai, C., Pan, M. H., and Wang, Y. J. 2007. Dihydrolipoic acid inhibits skin tumor promotion through anti-inflammation and anti-oxidation. Biochem Pharmacol 73:1786-1795. Fifty micrograms of protein from each sample were resolved by 12% SDS-polyacrylamide gel electrophoresis, transferred to PVDF and analyzed by western blotting. […]

A further data set relates to p-Akt (Ser473). Kind of data set: p-Akt immunoblotting analysis in MCF-7 cells. The data set is classed as cell-based, human. A general note: A western blot detects proteins with antibodies after separation by electrophoresis.
In another data set the test system is α9-nAChR. As to the kind of experiment: α9-nAChR mRNA and protein expression by RT-PCR and immunoblotting in MCF-7 cells. It is filed as cell-based, human. To be noted: nicotine 10 μM, 6 h post-treatment.
The conditions of data set [1]: cited from earlier work.
The test system of the next data set is AP1 DNA-binding sites. To be noted: nicotine 0.1-10 μM, 6 h, pGL3(AP1)5, MCF-7.
The subject of another data set is α9-nAChR promoter. As to the kind of experiment: luciferase activity assay, pGL3(α9-nAChR) promoter constructs in MCF-7 cells. It is filed as cell-based, human.

Experimental for AP1 DNA-binding sites: (§1) Cell lysates were harvested, and relative firefly luciferase activities were measured and normalized to renilla luciferase activities in the same cell lysates. […] The luciferase activity was assayed and normalized to the pRL-TK expression as described above. […] The data were analyzed using nonparametric tests; all P-values are two-sided.
MCF-7 cells were plated in six-well plates and incubated overnight. The following day, the cells were transiently cotransfected with 2 μg of pGL3 (α9-nAChR) promoter plasmid and 500 ng of RLTK plasmid (Promega, Madison, Wis.) using a MP-100 microporator (Digital Bio, Seoul, Korea) according to the manufacturer's instructions. […] Twenty-four hours later, the cells were lysed with 19 Reporter Lysis Buffer (Promega, Madison, Wis.) and stored at −20° C. overnight. Luciferase activity was then determined by mixing 50 µl of the cell lysate and 50 μl of the Luciferase Assay Reagent (Promega). The total luciferase light units were quantified using a HIDEX Chameleon Microplate Reader. The relative luciferase activity was normalized to that of renilla luciferase in the same cell lysates. Each luciferase assay experiment was performed three times. In this study, the luciferase activity observed in cells transfected with the empty vector was defined as a one-fold change (i.e., basal level). […]
Text for p-Akt (Ser473): Both p-AKT and total (T)-AKT protein expression were detected by immunoblotting analysis. The membrane was then re-probed with a GAPDH antibody to ensure equal protein loading.
Both p-AKT and T-AKT protein expression were detected by immunoblotting analysis. The membrane was then re-probed with a GAPDH antibody to ensure equal protein loading.
Fifty micrograms of protein from each sample were resolved by 12% SDS-polyacrylamide gel electrophoresis, transferred to PVDF and analyzed by western blotting. The antibodies employed for the western blotting analysis were purchased from the following vendors: anti-Akt, anti-JNK, anti-phospho JNK, anti-estrogen receptor a (anti-ERα), anti-c-Fos, anti-ERK1/2, anti-phospho ERK1/2, and protein A/G agarose beads were purchased from Santa Cruz Biotechnology (Santa Cruz, Calif., USA); anti-GAPDH, anti-α9-nAChR, and anti-phospho ERα (Ser^167) antibodies were obtained from ABcam (Cambridge, UK); anti-phospho Akt (Ser^473, Thr^308), anti-phospho c-Jun (Ser^73), anti-phospho ERα (Ser^118), and anti-phospho ERα (Ser^104/106) antibodies were purchased from Cell Signaling Technology (Danvers, Mass.). Immunodetection was performed by probing membranes with the appropriate dilutions of specific primary antibodies at room temperature for 2 h. The membranes were then incubated at room temperature for 1 h with either alkaline phosphatase-coupled anti-mouse or anti-rabbit secondary antibodies that were purchased from Santa Cruz Biotechnology. The specific protein complexes were identified by incubating the membranes with colorigenic substrates (nitroblue tetrazolium and 5-bromo-4-chloro-3indolyl-phosphate; KPL, Inc., Gaithersburg, Md., USA). In each experiment, the membranes were also probed with an anti-GAPDH antibody as a protein loading control.
Experimental for α9-nAChR promoter: as §1
All of the α9-nAChR promoter-luciferase gene fusions were constructed using a pGL3-Basic vector (Promega), and suitable α9 promoter fragments were introduced into the polylinker region of the vector, upstream of the luciferase gene. These constructs were defined as pGL3(α9-nAChR). The fragments were generated using restriction enzymes and were either cloned directly into a pGL3-Basic vector or first subcloned in a pBluescript vector and then transferred into a pGL3-Basic vector.
MCF-7 cells were plated in six-well plates and incubated overnight. The following day, the cells were transiently cotransfected with 2 μg of pGL3 (α9-nAChR) promoter plasmid and 500 ng of RLTK plasmid (Promega, Madison, Wis.) using a MP-100 microporator (Digital Bio, Seoul, Korea) according to the manufacturer's instructions. […] Twenty-four hours later, the cells were lysed with 19 Reporter Lysis Buffer (Promega, Madison, Wis.) and stored at −20° C. overnight. Luciferase activity was then determined by mixing 50 µl of the cell lysate and 50 μl of the Luciferase Assay Reagent (Promega). The total luciferase light units were quantified using a HIDEX Chameleon Microplate Reader. The relative luciferase activity was normalized to that of renilla luciferase in the same cell lysates. Each luciferase assay experiment was performed three times. In this study, the luciferase activity observed in cells transfected with the empty vector was defined as a one-fold change (i.e., basal level).
To more precisely define the regulatory elements that are required by the α9-nAChR promoter for ER-induced transcriptional activation, transient-transfection experiments were conducted using a series of 5′ promoter deletion constructs in pGL3 vectors that were transfected into MCF-7 cells. […]

For the compound `COc1cccc(-c2cc(=O)c3ccccc3o2)c1N` [PD98059], the “effect on E2-induced increase in p-ERK1/2 protein levels” value in the data set on ERK1/2 is “almost completely abolished”.
Take `CN1CCCC1c1cccnc1` (stereo not drawn) [nicotine]: the “effect of combined treatment on E2-induced Akt (Ser473) phosphorylation” value in the data set on p-Akt (Ser473) (nicotine 5 μM + E2 5 nM, 15 min, MCF-7) is listed as “enhanced”. Besides, the “time to significantly increased p-Akt (Ser473) expression” value with p-Akt (Ser473) (nicotine 10 μM, MCF-7) is at most 10 min. Besides, the “p-Akt (Ser473) expression for the duration of the experiment” value in the data set with p-Akt (Ser473) (nicotine 10 μM, MCF-7, time course) is “persistent increase”. Moreover, in the data set on p-Akt (Ser473) (within 15 min, MCF-7), the “minimum concentration required for p-Akt (Ser473) induction” value stood at 5 µM. Further, the “α9-nAChR mRNA and protein expression levels” value in the data set on α9-nAChR is on record as “significantly induced”. In data set [1] (in vivo), the “nicotine absorbed systemically while smoking a cigarette” value is “roughly 1.0 mg”, the “nicotine concentration in the gastric juice” value was over 800 ng/mL, the “nicotine concentration in the plasma” value is “approximately 15 ng/ml” and the “nicotine concentration in the saliva” value is over 1300 ng/mL. For the same compound, in data set [1] (studies using 14C-nicotine), the “share of inhaled nicotine absorbed by the body” value is reported as 80-90%. Further, the AP1-linked luciferase activity entry in the data set with AP1 DNA-binding sites is “increased the AP1-linked luciferase activity in a dose-dependent manner”. For the same compound, the “induced responsiveness of promoter with positions -995 to -260 deleted” value in the data set on α9-nAChR promoter (E2 10 nM or nicotine 10 μM) was “preserved”. For the same compound, in the data set with α9-nAChR promoter (nicotine 10 μM), the “nicotine-induced luciferase activity with promoter positions -41 to -1 deleted” value is “abolished”. In the data set with α9-nAChR promoter (nicotine 10 μM, 24 h, empty vector = one-fold), the “induction of α9-nAChR promoter activity (luciferase), full-length construct” value was “greater than fourfold”.
